Article PMC7732531 (Frontiers in Pharmacology, 2020)
Like-named read-outs stand apart in the source and are kept apart here.

How the values were obtained:
[1] = Pharmacokinetics in portal and jugular vein double cannulated rats; details: double cannulation rat model, if F a is 100%
Protocol: The surgical procedure for portal vein catheter insertion was performed according to reference ([Matsuda et al., 2012]). Male SD rats (250–280 g) were purchased from Beijing Vital River Laboratory Animal Technology Co., Ltd. (Beijing, China). Rats were anesthetized with 2% pentobarbital sodium (0.2–0.3 mg/100 g) intraperitoneally dosed. Cannulation into the jugular vein was performed by the method of Murakami reported ([Murakami et al., 2003]) with minor modification. Briefly, an incision of ∼0.5 cm near right clavicle was made and the jugular vein was exposed. Next, this vein was cannulated with ∼12.5 cm of silicone gel tubing (0.6 mm I.D. × 0.9 mm O.D., Skillsmodel Inc., Beijing, China). The other side of the tubing was passed through the back skin. 2.5 cm midline incision was made in the abdominal cavity close to ensiform process and the portal vein was detached. To prevent bleeding, the portal vein was ligated temporarily as the catheter was inserted. The silicone tubing (22 cm, 0.6 mm I.D. × 0.9 mm O.D., Skillsmodel Inc., Beijing, China) was inserted immediately and fixed by a purse-string suture on the portal vein. The time to reperfusion was about 1 min after intercepted blood flow. In addition, a catheter with trumpet-shaped opening was used to prevent the catheter from slipping out of the vessel and minimize the effect on blood flow. Another end of the catheter was passed subcutaneously to the skin close to the scapula.
Blood samples were collected at 0, 0.083, 0.25, 0.5, 1, 2, 4, 6, 8 and 12 h. Blood (approximately 100 µl) was collected from the jugular and portal veins into tubes containing heparin on ice and centrifuged within 1 h of collection. Plasma was harvested and stored at −20°C for bioanalysis.
FaFg was calculated using mass balance method and rat portal blood flow (Qpv) of 32 ml/min/kg, where Rb/p is used to convert plasma concentrations to blood concentrations.

[2] = Pharmacokinetics in rats with ABT pretreatment (intestinal and hepatic availability); details: for concentration at 0.033 h / concentration at 0.083 h / concentration at 8 h / concentration at 12 h / concentration at 24 h / concentration at 0.25 h / concentration at 0.5 h / concentration at 1 h / concentration at 2 h / concentration at 4 h / concentration at 6 h / AUC(0-t) / AUC(0-inf) / MRT last / Vd / clearance / half-life / bioavailability / Cmax / Tmax: rat, plasma; for concentration at 0.033 h / concentration at 0.083 h / concentration at 8 h / concentration at 12 h / concentration at 24 h / concentration at 0.25 h / concentration at 0.5 h / concentration at 1 h / concentration at 2 h / concentration at 4 h / concentration at 6 h: Plasma concentration; for concentration at 0.033 h / concentration at 0.083 h / concentration at 8 h / concentration at 12 h / concentration at 24 h / concentration at 0.25 h / concentration at 0.5 h / concentration at 1 h / concentration at 2 h / concentration at 4 h / concentration at 6 h / AUC(0-inf) / MRT last / E g (gut extraction) / E h (hepatic extraction) / F g / F h / F p.o. / reduction of systemic clearance: rats; for MRT last: MRT(0–t)
[3] = Brain distribution under steady state (Kp,uu); assay type: in vivo, rat
[4] = rat, microsomes, 0 h, 1 μM, pH 7.4
[5] = rat, microsomes, 0 h, 1 μM, pH 7.4; remark: listed apart in the source
[6] = iv, 0.1 mg/kg, p.o. ABT, i.v. YL-IPA08 (0.1 mg/kg)
[7] = iv, 0.1 mg/kg, with ABT 100 mg/kg p.o., 15 h before dosing
[8] = iv, 0.5 mg/kg, i.v. ABT, i.v. YL-IPA08 (0.5 mg/kg)
[9] = iv, 0.5 mg/kg, with ABT 50 mg/kg i.v., 1 h before dosing
[10] = po, 1 mg/kg, i.v. ABT, p.o. YL-IPA08 (1 mg/kg)
[11] = po, 1 mg/kg, p.o. ABT, p.o. YL-IPA08 (1 mg/kg)
[12] = po, 1 mg/kg, with ABT 50 mg/kg i.v., 1 h before dosing
[13] = po, 1 mg/kg, with ABT 100 mg/kg p.o., 15 h before dosing

CCN(Cc1ccccn1)C(=O)Cc1c(-c2ccc(Cl)c(Cl)c2)nc2cc(C)ccn12 [YL-IPA08]
extraction of gut metabolism [1]: 78%
concentration at 0.033 h ([2]; intravenous, 0.1 mg/kg, p.o. 100 mg/kg ABT, i.v. 0.1 mg/kg YL-IPA08, 0.033 h): 465 ± 68.7 ng/mL
concentration at 0.083 h ([2]; intravenous, 0.1 mg/kg, p.o. 100 mg/kg ABT, i.v. 0.1 mg/kg YL-IPA08, 0.083 h): 398 ± 51.3 ng/mL
concentration at 8 h ([2]; intravenous, 0.1 mg/kg, p.o. 100 mg/kg ABT, i.v. 0.1 mg/kg YL-IPA08, 8 h): 8.97 ± 2.63 ng/mL
concentration at 12 h ([2]; intravenous, 0.1 mg/kg, p.o. 100 mg/kg ABT, i.v. 0.1 mg/kg YL-IPA08, 12 h): 4.58 ± 1.17 ng/mL
concentration at 24 h ([2]; intravenous, 0.1 mg/kg, p.o. 100 mg/kg ABT, i.v. 0.1 mg/kg YL-IPA08, 24 h): 0.65 ± 0.29 ng/mL
concentration at 0.033 h ([2]; intravenous, 0.5 mg/kg, i.v. 50 mg/kg ABT, i.v. 0.5 mg/kg YL-IPA08, 0.033 h): 398 ± 77.8 ng/mL
concentration at 0.083 h ([2]; intravenous, 0.5 mg/kg, i.v. 50 mg/kg ABT, i.v. 0.5 mg/kg YL-IPA08, 0.083 h): 285 ± 28.2 ng/mL
concentration at 12 h ([2]; intravenous, 0.5 mg/kg, i.v. 50 mg/kg ABT, i.v. 0.5 mg/kg YL-IPA08, 12 h): 6.73 ± 2.47 ng/mL
concentration at 24 h ([2]; intravenous, 0.5 mg/kg, i.v. 50 mg/kg ABT, i.v. 0.5 mg/kg YL-IPA08, 24 h): 2.01 ± 0.93 ng/mL
concentration at 0.25 h ([2]; intravenous, i.v. 50 mg/kg ABT, i.v. 0.5 mg/kg YL-IPA08, 0.25 h): 208 ± 29.4 ng/mL
concentration at 0.5 h ([2]; intravenous, i.v. 50 mg/kg ABT, i.v. 0.5 mg/kg YL-IPA08, 0.5 h): 156 ± 21.5 ng/mL
concentration at 1 h ([2]; intravenous, i.v. 50 mg/kg ABT, i.v. 0.5 mg/kg YL-IPA08, 1 h): 113 ± 14.7 ng/mL
concentration at 2 h ([2]; intravenous, i.v. 50 mg/kg ABT, i.v. 0.5 mg/kg YL-IPA08, 2 h): 54.8 ± 11.8 ng/mL
concentration at 4 h ([2]; intravenous, i.v. 50 mg/kg ABT, i.v. 0.5 mg/kg YL-IPA08, 4 h): 17.6 ± 5.36 ng/mL
concentration at 6 h ([2]; intravenous, i.v. 50 mg/kg ABT, i.v. 0.5 mg/kg YL-IPA08, 6 h): 10.8 ± 3.07 ng/mL
concentration at 8 h ([2]; intravenous, i.v. 50 mg/kg ABT, i.v. 0.5 mg/kg YL-IPA08, 8 h): 8.91 ± 3.06 ng/mL
concentration at 0.25 h ([2]; intravenous, p.o. 100 mg/kg ABT, i.v. 0.1 mg/kg YL-IPA08, 0.25 h): 266 ± 55.2 ng/mL
concentration at 0.5 h ([2]; intravenous, p.o. 100 mg/kg ABT, i.v. 0.1 mg/kg YL-IPA08, 0.5 h): 245 ± 30.4 ng/mL
concentration at 1 h ([2]; intravenous, p.o. 100 mg/kg ABT, i.v. 0.1 mg/kg YL-IPA08, 1 h): 192 ± 16.5 ng/mL
concentration at 2 h ([2]; intravenous, p.o. 100 mg/kg ABT, i.v. 0.1 mg/kg YL-IPA08, 2 h): 114 ± 13.7 ng/mL
concentration at 4 h ([2]; intravenous, p.o. 100 mg/kg ABT, i.v. 0.1 mg/kg YL-IPA08, 4 h): 38.7 ± 13.7 ng/mL
concentration at 6 h ([2]; intravenous, p.o. 100 mg/kg ABT, i.v. 0.1 mg/kg YL-IPA08, 6 h): 14.5 ± 3.66 ng/mL
AUC(0-t) ([2]; iv, 0.1 mg/kg): 125 ± 46.9 ng·h/mL
AUC(0-inf) [2, 6]: 126 ± 46.6 ng·h/mL
MRT last [2, 6]: 5.45 ± 0.66 h
Vd [2, 7]: 1.54 ± 0.49 L/kg
clearance [2, 7]: 15 ± 4.78 mL/min/kg
half-life [2, 7]: 1.19 ± 0.12 h
AUC(0-t) ([2]; iv, 0.5 mg/kg): 472 ± 64.3 ng·h/mL
AUC(0-inf) [2, 8]: 476 ± 65.8 ng·h/mL
MRT last [2, 8]: 3.82 ± 0.32 h
Vd [2, 9]: 2.24 ± 0.28 L/kg
clearance [2, 9]: 17.8 ± 2.74 mL/min/kg
half-life [2, 9]: 1.46 ± 0.14 h
concentration at 0.083 h ([2]; oral, 1 mg/kg, i.v. 50 mg/kg ABT, p.o. 1mg/kg YL-IPA08, 0.083 h): 9.32 ± 7.18 ng/mL
concentration at 8 h ([2]; oral, 1 mg/kg, i.v. 50 mg/kg ABT, p.o. 1mg/kg YL-IPA08, 8 h): 4.51 ± 2.58 ng/mL
concentration at 12 h ([2]; oral, 1 mg/kg, i.v. 50 mg/kg ABT, p.o. 1mg/kg YL-IPA08, 12 h): 3.98 ± 4.24 ng/mL
concentration at 24 h ([2]; oral, 1 mg/kg, i.v. 50 mg/kg ABT, p.o. 1mg/kg YL-IPA08, 24 h): 1.28 ± 0.53 ng/mL
concentration at 0.083 h ([2]; oral, 1 mg/kg, p.o. 100 mg/kg ABT, p.o. 1 mg/kg YL-IPA08, 0.083 h): 546 ± 637 ng/mL
concentration at 8 h ([2]; oral, 1 mg/kg, p.o. 100 mg/kg ABT, p.o. 1 mg/kg YL-IPA08, 8 h): 34.2 ± 19.6 ng/mL
concentration at 12 h ([2]; oral, 1 mg/kg, p.o. 100 mg/kg ABT, p.o. 1 mg/kg YL-IPA08, 12 h): 17.4 ± 8.5 ng/mL
concentration at 24 h ([2]; oral, 1 mg/kg, p.o. 100 mg/kg ABT, p.o. 1 mg/kg YL-IPA08, 24 h): 1.39 ± 0.98 ng/mL
bioavailability ([2]; oral, 1 mg/kg, with ABT 50 mg/kg i.v., 1 h before dosing): 19.7%
concentration at 0.25 h ([2]; oral, i.v. 50 mg/kg ABT, p.o. 1mg/kg YL-IPA08, 0.25 h): 28.2 ± 25.2 ng/mL
concentration at 0.5 h ([2]; oral, i.v. 50 mg/kg ABT, p.o. 1mg/kg YL-IPA08, 0.5 h): 30.3 ± 35.4 ng/mL
concentration at 1 h ([2]; oral, i.v. 50 mg/kg ABT, p.o. 1mg/kg YL-IPA08, 1 h): 34.8 ± 50.4 ng/mL
concentration at 2 h ([2]; oral, i.v. 50 mg/kg ABT, p.o. 1mg/kg YL-IPA08, 2 h): 30.5 ± 42 ng/mL
concentration at 4 h ([2]; oral, i.v. 50 mg/kg ABT, p.o. 1mg/kg YL-IPA08, 4 h): 13.3 ± 17.1 ng/mL
concentration at 6 h ([2]; oral, i.v. 50 mg/kg ABT, p.o. 1mg/kg YL-IPA08, 6 h): 6.4 ± 4.73 ng/mL
concentration at 0.25 h ([2]; oral, p.o. 100 mg/kg ABT, p.o. 1 mg/kg YL-IPA08, 0.25 h): 403 ± 402 ng/mL
concentration at 0.5 h ([2]; oral, p.o. 100 mg/kg ABT, p.o. 1 mg/kg YL-IPA08, 0.5 h): 370 ± 354 ng/mL
concentration at 1 h ([2]; oral, p.o. 100 mg/kg ABT, p.o. 1 mg/kg YL-IPA08, 1 h): 334 ± 247 ng/mL
concentration at 2 h ([2]; oral, p.o. 100 mg/kg ABT, p.o. 1 mg/kg YL-IPA08, 2 h): 246 ± 150 ng/mL
concentration at 4 h ([2]; oral, p.o. 100 mg/kg ABT, p.o. 1 mg/kg YL-IPA08, 4 h): 125 ± 71.7 ng/mL
concentration at 6 h ([2]; oral, p.o. 100 mg/kg ABT, p.o. 1 mg/kg YL-IPA08, 6 h): 47.7 ± 28.6 ng/mL
AUC(0-t) ([2]; po, 1 mg/kg): 185 ± 148 ng·h/mL
AUC(0-inf) [2, 10]: 188 ± 146 ng·h/mL
AUC(0-inf) [2, 11]: 876 ± 183 ng·h/mL
MRT last [2, 10]: 8.37 ± 3.67 h
MRT last [2, 11]: 5.51 ± 1.25 h
Cmax [2, 12]: 41.8 ± 42 ng/mL
Tmax [2, 12]: 0.87 ± 0.68 h
AUC(0-t) [2, 13]: 868 ± 185 ng·h/mL
Cmax [2, 13]: 176 ± 88.5 ng/mL
Tmax [2, 13]: 1.4 ± 1.32 h
bioavailability [2, 13]: 69.7%
E g (gut extraction) ([2]; ABT i.v.): 75%
E h (hepatic extraction) ([2]; ABT i.v.): 20%
F g ([2]; ABT i.v.): 25%
F h ([2]; ABT i.v.): 80%
F p.o. ([2]; ABT i.v.): ~20%
E g (gut extraction) ([2]; ABT p.o.): 16%
E h (hepatic extraction) ([2]; ABT p.o.): 17%
F g ([2]; ABT p.o.): 84%
F h ([2]; ABT p.o.): 83%
F p.o. ([2]; ABT p.o.): ~70%
reduction of systemic clearance ([2]; ABT pretreatment through i.v. injection): about 75%
reduction of systemic clearance ([2]; ABT pretreatment through oral gavage): ~80%
E g (gut extraction) ([2]; No ABT): 65%
E h (hepatic extraction) ([2]; No ABT): 83%
F g ([2]; No ABT): 35%
F h ([2]; No ABT): 17%
F p.o. ([2]; No ABT): 6%
unbound concentration in rat brain ([3]; estimated based on K p,uu): 0.0065 ng/mL
unbound concentration in brain ([3]; rats, after 1 mg/kg oral dosing, estimated from plasma concentrations and K p,uu): 6.5 pg/g
percent of remaining [4]: 100.00%
percent of remaining [5]: 100.00%
